“Also recorded” adds a separate entry of the source.
Assays:
HBE cells [1] = experiment: Mucus transport studies (fluorescent beads) in HBE cells; format: cell-based, human; conditions: ivacaftor 10 μM basolateral, co-stimulated with VIP 30 nM, vs control (FIG. 2C)
Experimental: HBE cells were washed with sterile PBS twice 1-2 days prior to addition of PEG beads. Fifty (50) μl of Diamine polyethylene glycol (PEG) coated fluorescent beads (1 μm, Molecular Probes, Eugene, Oreg., 1:500 dilution in PBS) were added to the apical surface by using a microsprayer aerosolizer (Penn-Century Inc Model IA-1B, Wyndmoor, Pa.). Following 24 h incubation, baseline images were obtained and then test compounds added to the basolateral compartment. Mucociliary transport (MCT) images were captured by time-lapse fluorescence imaging at four regions of interest per well located 1 mm from the periphery of the well and at each quadrant using an inverted epifluorescence microscope (Nikon Diaphot, Melvin, N.Y.; 488 nm excitation/519 nm emission). Linear transport rates were computed using Metamoph 7.0 by analyzing 10-15 particles per region (7).

HBE cells [2] = experiment: Airway surface liquid (ASL) depth measurement by confocal microscopy in HBE monolayers; format: cell-based, human; conditions: ivacaftor 10 μM basolateral, 24 h, confocal (FIGS. 2A, 2B)
Experimental: White scale bars designate 10 μm.
Dotted line indicates ASL depth of a panel of CF HBE cells using the exact same method.
The apical surfaces of HBE cells were washed three times and then test compounds added to the basolateral compartment 24 h prior to labeling. Cells were stained with CMFDA (100 μM) in the cell culture medium for 1 hr. Texas red dye (25 μl at 2 mg/ml in Fc70) was added apically and cells allowed to equilibrate 2 h at 37° C. Transwell membranes were placed in sterile glass bottom dish coated with MEM, and imaged with a Carl Zeiss (Peabody, Mass.) confocal microscope using 20× (numerical aperture 0.88, working distance 0.55 mm) air objective lens. Cells were visualized with DIC optics to evaluate cell morphology before initiating fluorescence microscopy. Subsequently, Zscan confocal fluorescent microscopy images were acquired from the top of the ASL through the top of the cell surface. XZ scans were analyzed using Zen2008 software at four ROI per well each located 1 mm from the filter periphery and at each quadrant; 5 estimates of ASL depth were taken equally dispersed across each ROI (7, 9).

HBE cells [3] = experiment: μOCT imaging of airway epithelial function in HBE cells containing WT-CFTR; format: cell-based, human
Experimental: ASL depth is shown as red bar. White scale bar=10 μm.
FIGS. 4A-4D show the effects of CFTR activators on airway epithelial function in human bronchial epithelial cells by μOCT. Control HBE cells containing a defective CFTR (designated control, CF) and HBE cells containing a WT-CFTR (designated control and VX-770, wild-type) received vehicle alone (control; 0.2% DMSO) or ivacaftor (10 μM). FIGS. 4A-4D show ASL depth (FIG. 4A), PCL depth (FIG. 4B), cilia beat frequency (FIG. 4C), and mucociliary transport (MCT) rate (FIG. 4D) as quantified from μOCT images.
FIGS. 5A-5D show the effects of CFTR activators on airway epithelial function in human bronchial epithelial cells by μOCT. […] CSE was applied apically and ivacaftor basolaterally. Cells were exposed to each condition for 24 hrs. ASL depth is shown as a dark bar. White scale bar=10 μm. FIGS. 5B-5D show ASL depth (FIG. 5B), cilia beat frequency (FIG. 5C), and mucociliary transport (MCT) rate (FIG. 5D) as quantified from μOCT images. Data are derived from 5 measures per well, and 3 wells per condition.
The effect of CFTR activators was evaluated using μOCT imaging in HBE cells (FIGS. 4A-4D). […] Mucus and the PCL layer that together comprise the airway surface liquid (ASL) layer can also be clearly visualized. As shown in FIGS. 4A-4D, from top to bottom, the air has no μOCT signal, while the mucus layer appears heterogeneous with high μOCT signal intensity. The PCL gel has a low μCT signal intensity compared with the mucus and monolayer and includes ciliary structures. The air-liquid interface, mucus-PCL interface, and apical cell surface are clearly defined so that ASL and PCL heights can be directly measured with submicrometer resolution. In addition to the different layers, cilia tips can be readily detected by μOCT, as they are brighter than the surrounding PCL and mucus. The tips maintain contact with the deep surface of mucus blanket and lift the mucus nearby by a few hundred nanometers during the effective stroke.
The results in this example, illustrated in FIGS. 4A-4D, confirm the results shown above that CFTR activators increase the activity of WT-CFTR. In FIGS. 4A-4D, control HBE cells containing a defective CFTR (designated control, CF) were used along with HBE cells containing a WT-CFTR (designated control and VX-770, wild-type). Control cells received vehicle alone (0.2% DMSO); ivacaftor was used in all cases at 10 μM. […] In terms of PCL depth, the PCL only extends approximately 7 microns (corresponding to the depth of the full length cilia); further increases are difficult to detect. For CBF, the rate of CBF may not be rate limiting in all conditions. For example, if the cilia were beating against thick mucus (caused for example by mucus overproduction or the inability to clear mucus normally), the CBF would be slower. However, in this assays the determination of CBF is made versus a normal control making meaning an increase in CBF may not be detected in all cases.
Data in FIGS. 5A-5D are derived from 5 measurements per well, with three wells per condition. In FIGS. 5A-5D, all cells contained WT-CFTR; control cells received DMSO vehicle ([…]), CSE indicates cells received 2% CSE extract administered apically; CSE indicates cells received 2% CSE extract administered apically and 10 μM ivacaftor administered basolaterally; VX-770 indicates cells received 10 μM ivacaftor administered basolaterally. All data were derived from μOCT images as described herein.
The μOCT system is a spectral-domain OCT implementation with several improvements to standard OCT that yield high resolution in both lateral and axial directions. The general layout and axial resolution characterization have been described (Liu et al., PLOSOne, 8(1), E54473-2013). A super-continuum source (Fianium SC450) provides the high-bandwidth, short coherence length light necessary for high axial resolution ([…]). […]

G551D-CFTR = G551D-CFTR (Homo sapiens, UniProt P13569, G551D); conditions: in vitro and in CF subjects harboring the G551D-CFTR defect; reported; cited from earlier work
Sequence of G551D-CFTR (P13569 whole entry G551D): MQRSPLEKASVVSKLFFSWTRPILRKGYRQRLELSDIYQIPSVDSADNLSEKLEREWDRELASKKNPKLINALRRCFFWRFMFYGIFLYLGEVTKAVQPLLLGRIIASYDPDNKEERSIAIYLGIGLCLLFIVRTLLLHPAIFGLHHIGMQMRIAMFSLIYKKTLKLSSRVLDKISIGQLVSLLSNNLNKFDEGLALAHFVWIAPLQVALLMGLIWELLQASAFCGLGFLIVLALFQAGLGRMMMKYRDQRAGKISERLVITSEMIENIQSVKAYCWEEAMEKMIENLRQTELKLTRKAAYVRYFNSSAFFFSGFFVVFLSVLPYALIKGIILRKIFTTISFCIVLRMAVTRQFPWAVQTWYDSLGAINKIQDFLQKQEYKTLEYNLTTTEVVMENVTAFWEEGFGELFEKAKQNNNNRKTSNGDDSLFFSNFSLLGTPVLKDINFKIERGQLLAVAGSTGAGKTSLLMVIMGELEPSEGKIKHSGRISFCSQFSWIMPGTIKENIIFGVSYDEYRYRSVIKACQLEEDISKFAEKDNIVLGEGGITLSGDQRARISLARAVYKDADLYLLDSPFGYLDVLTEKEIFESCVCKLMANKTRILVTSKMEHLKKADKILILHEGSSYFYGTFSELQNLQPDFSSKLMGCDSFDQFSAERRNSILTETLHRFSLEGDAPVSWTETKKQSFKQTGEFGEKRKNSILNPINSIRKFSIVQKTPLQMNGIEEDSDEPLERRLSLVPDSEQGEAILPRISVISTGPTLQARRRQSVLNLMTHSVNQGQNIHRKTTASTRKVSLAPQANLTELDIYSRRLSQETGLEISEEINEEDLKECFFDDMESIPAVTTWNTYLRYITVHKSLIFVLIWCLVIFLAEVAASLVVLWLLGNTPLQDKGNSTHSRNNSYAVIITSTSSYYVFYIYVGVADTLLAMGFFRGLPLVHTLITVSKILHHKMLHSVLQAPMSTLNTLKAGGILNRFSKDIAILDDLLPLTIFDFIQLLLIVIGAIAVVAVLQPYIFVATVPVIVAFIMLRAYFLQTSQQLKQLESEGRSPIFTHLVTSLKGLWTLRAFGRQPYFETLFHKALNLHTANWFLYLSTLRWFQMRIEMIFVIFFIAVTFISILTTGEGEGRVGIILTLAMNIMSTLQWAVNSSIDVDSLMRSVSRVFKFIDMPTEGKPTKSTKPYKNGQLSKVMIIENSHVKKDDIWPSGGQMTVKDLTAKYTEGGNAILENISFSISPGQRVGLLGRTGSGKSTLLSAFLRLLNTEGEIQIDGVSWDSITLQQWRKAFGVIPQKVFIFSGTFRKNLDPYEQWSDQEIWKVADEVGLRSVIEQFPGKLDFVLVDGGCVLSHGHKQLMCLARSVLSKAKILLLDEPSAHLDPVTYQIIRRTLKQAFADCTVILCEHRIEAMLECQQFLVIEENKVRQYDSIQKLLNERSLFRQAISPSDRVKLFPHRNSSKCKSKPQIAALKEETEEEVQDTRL

Q: Which results are given for CC(C)(C)c1cc(C(C)(C)C)c(NC(=O)c2c[nH]c3ccccc3c2=O)cc1O [ivacaftor]?
A: mucus transport (MCT) (HBE cells [1]): markedly increased above baseline; ASL depth (HBE cells [2]): enhanced; MCT (HBE cells [3]; 2% CSE apically plus ivacaftor 10 μM basolaterally, 24 hrs (FIG. 5D)): increased MCT to that seen in the control cells; ASL depth (HBE cells [3]; 2% CSE apically plus ivacaftor 10 μM basolaterally, 24 hrs, vs CSE (FIG. 5B)): significantly increased; PCL depth (HBE cells [3]; ivacaftor 10 μM, as compared to control CF HBE cells (FIG. 4B)): increased; CBF (HBE cells [3]; ivacaftor 10 μM, as compared to control CF HBE cells (FIG. 4C)): increased; overall MCT (HBE cells [3]; ivacaftor 10 μM, as compared to control wild-type and control CF cells (FIG. 4D)): increased significantly; PCL depth (HBE cells [3]; ivacaftor 10 μM, in comparison to control wild-type (FIG. 4B)): not increased in a statistically significant manner; CBF (HBE cells [3]; ivacaftor 10 μM, in comparison to control wild-type (FIG. 4C)): not increased in a statistically significant manner; ASL depth (HBE cells [3]; ivacaftor 10 μM, vs control wild-type and control CF HBE cells (FIG. 4A)): increased ASL depth significantly above control; ASL depth (HBE cells [3]; ivacaftor alone 10 μM basolaterally, 24 hrs, vs control (FIG. 5B)): significantly increased; MCT (HBE cells [3]; ivacaftor alone 10 μM basolaterally, 24 hrs, vs control (FIG. 5D, FIG. 2D)): robust enhancement; also recorded: significantly increased; cAMP mediated ion transport activity of CFTR encoding the gating mutation G551D-CFTR (G551D-CFTR): significantly augment

Source: patent US10300052B2, “Methods for increasing CFTR activity” (THE UAB RESEARCH FOUNDATION, priority 2012, dated 2019)
